Measurements taken from patent US11613527B2, “Enzyme inhibitors” (KalVista Pharmaceuticals Limited, priority 2019, dated 2023).
In brackets after ≈: the same amount, converted by molar mass.

Legend:
Human plasma kallikrein = Human plasma kallikrein (Homo sapiens (Human), UniProt P03952); experiment: Determination of the IC50 for plasma kallikrein (fluorogenic substrate H-DPro-Phe-Arg-AFC); assay type: biochemical; details: class symbols A-D, read-out: IC50 (human PKal)
Procedure, shortened: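 IC50 values come from initial rates, monitored as the change in absorbance at 410 nm, of residual enzyme activity. Test compound was present at various concentrations with the fluorogenic substrate H-DPro-Phe-Arg-AFC, and the reaction was run at 25° C.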

Human FXIa = Human FXIa (Homo sapiens (Human), UniProt P03951); experiment: Determination of the % inhibition for FXIa (fluorogenic substrate Z-Gly-Pro-Arg-AFC; 40 μM or IC50); assay type: biochemical
Procedure, shortened: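 Inhibition measured from initial reaction rate, followed as absorbance change at 410 nm, with substrate Z-Gly-Pro-Arg-AFC at 25 °C. Compound tested at a single 40 μM dose for percent inhibition, or across several concentrations to derive IC50 against human FXIa.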

Human KLK1 = Human KLK1 (Homo sapiens (Human), UniProt P06870); experiment: Determination of the IC50 for KLK1 (fluorogenic substrate H-DVal-Leu-Arg-AFC); assay type: biochemical
Procedure, shortened: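 Inhibition read as initial rate via optical absorbance change at 410 nm, giving IC50. Reactions combined human KLK1, the substrate H-DVal-Leu-Arg-AFC and varied compound concentrations at 25° C.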

[1] = Solubility after 24 hrs in Fasted State Simulated Intestinal Fluid (FaSSIF); assay type: physicochemical; details: Fasted State Simulated Intestinal Fluid (FaSSIF), thermodynamic from solid, 24 hrs at 37° C., nominal concentration 1 mg/mL (as free base)
Method: Selected compounds were further screened for solubility in Fasted State Simulated Intestinal Fluid (FaSSIF).
Approximately 1 mg of test compound is accurately weighed into a 2 mL vial. Volumes of the FaSSIF solution (pre-heated to 37° C.) were added to a vial to give a nominal concentration of 1 mg/mL (as free base). The FaSSIF solution was prepared on the day of use. The samples were vortexed before being placed in a Titramax 1000 shaker for 24 hrs at 37° C. and approximately 500 rpm. The samples were transferred to eppendorf tubes and centrifuged at 15,000 g (r.c.f.) for 10 min at 37° C. and analysed for concentration of test compound by LCMS.

Sequence of Human KLK1 (P06870 25-262): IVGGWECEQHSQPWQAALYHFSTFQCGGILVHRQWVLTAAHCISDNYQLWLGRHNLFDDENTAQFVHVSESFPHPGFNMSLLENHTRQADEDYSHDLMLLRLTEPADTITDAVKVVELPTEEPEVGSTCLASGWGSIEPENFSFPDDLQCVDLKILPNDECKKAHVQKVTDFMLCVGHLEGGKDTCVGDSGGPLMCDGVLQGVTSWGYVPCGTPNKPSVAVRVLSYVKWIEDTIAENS
Sequence of Human plasma kallikrein (P03952 391-638): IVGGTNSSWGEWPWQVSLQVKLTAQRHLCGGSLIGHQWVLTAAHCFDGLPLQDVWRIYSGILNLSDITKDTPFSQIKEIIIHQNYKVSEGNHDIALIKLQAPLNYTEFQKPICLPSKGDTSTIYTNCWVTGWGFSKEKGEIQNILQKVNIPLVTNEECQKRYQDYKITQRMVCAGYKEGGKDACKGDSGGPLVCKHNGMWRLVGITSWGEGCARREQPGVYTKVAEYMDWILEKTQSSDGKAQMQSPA
Sequence of Human plasma kallikrein (P03952 20-390 partner): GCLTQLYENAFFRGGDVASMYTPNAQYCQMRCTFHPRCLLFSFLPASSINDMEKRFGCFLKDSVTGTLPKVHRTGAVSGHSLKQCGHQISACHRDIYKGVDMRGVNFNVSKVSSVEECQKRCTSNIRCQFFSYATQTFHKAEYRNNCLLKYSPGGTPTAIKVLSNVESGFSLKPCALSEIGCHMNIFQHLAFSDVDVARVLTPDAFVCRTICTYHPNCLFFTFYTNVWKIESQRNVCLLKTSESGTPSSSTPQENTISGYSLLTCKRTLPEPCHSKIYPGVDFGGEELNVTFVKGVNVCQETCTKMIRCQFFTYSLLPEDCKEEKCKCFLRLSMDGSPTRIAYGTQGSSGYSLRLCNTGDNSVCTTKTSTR
Sequence of Human FXIa (P03951 388-625): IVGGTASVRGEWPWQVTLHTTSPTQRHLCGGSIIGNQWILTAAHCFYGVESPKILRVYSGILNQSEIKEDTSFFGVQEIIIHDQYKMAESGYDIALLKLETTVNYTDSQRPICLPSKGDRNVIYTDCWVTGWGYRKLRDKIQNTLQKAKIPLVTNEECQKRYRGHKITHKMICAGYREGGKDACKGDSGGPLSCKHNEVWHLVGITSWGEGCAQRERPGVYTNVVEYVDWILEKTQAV
Sequence of Human FXIa (P03951 19-387 partner): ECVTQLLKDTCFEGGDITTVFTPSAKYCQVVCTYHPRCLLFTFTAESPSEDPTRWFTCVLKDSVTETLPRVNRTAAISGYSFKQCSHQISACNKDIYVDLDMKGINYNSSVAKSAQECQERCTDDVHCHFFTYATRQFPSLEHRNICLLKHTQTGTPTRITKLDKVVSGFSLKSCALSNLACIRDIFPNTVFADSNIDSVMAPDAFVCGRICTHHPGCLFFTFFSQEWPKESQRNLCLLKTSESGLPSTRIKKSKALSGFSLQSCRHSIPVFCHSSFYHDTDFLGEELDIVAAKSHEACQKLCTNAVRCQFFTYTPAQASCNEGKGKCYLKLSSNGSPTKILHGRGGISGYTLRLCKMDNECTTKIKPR

| IC50 (Human plasma kallikrein) [µM] | IC50 (Human FXIa) [µM] | IC50 (Human KLK1) [µM] | solubility at 24 h [1] [µg/mL] | SMILES |
| --- | --- | --- | --- | --- |
| < 0.01 | 1.03 | > 40 | > 1000 | COCc1nn(Cc2ccc3c(c2)CN(C)CC3)cc1C(=O)NCc1c(-n2cnc(C)n2)ccc(OC)c1F [Example 4, N-{[2-fluoro-3-methoxy-6-(3-methyl-1,2,4-triazol-1-yl)phenyl]methyl}-3-(methoxymethyl)-1-[(2-methyl-3,4-dihydro-1H-isoquinolin-7-yl)methyl]pyrazole-4-carboxamide] |
| < 0.01 | 18.9 | > 40 | 730 (≈ 1340 µM) | COCc1nn(Cc2ccc3c(c2)CN(C)CC3)cc1C(=O)NCc1c(-n2ccc(C#N)n2)ccc(OC)c1F [Example 11, N-{[6-(3-cyanopyrazol-1-yl)-2-fluoro-3-methoxyphenyl]methyl}-3-(methoxymethyl)-1-[(2-methyl-3,4-dihydro-1H-isoquinolin-7-yl)methyl]pyrazole-4-carboxamide] |
| < 0.01 | > 40 | > 40 | 760 (≈ 1230 µM) | COCc1nn(Cc2ccc3c(c2)CN(C(C)C)CC3)cc1C(=O)NCc1c(-n2cnc(C(F)(F)F)n2)ccc(OC)c1F [Example 22, N-({2-fluoro-3-methoxy-6-[3-(trifluoromethyl)-1,2,4-triazol-1-yl]phenyl}methyl)-1-[(2-isopropyl-3,4-dihydro-1H-isoquinolin-7-yl)methyl]-3-(methoxymethyl)pyrazole-4-carboxamide] |
| < 0.01 | 33.9 | > 40 | 960 (≈ 1720 µM) | CCN1CCc2ccc(Cn3cc(C(=O)NCc4c(-n5ccc(C#N)n5)ccc(OC)c4F)c(COC)n3)cc2C1 [Example 27, N-{[6-(3-cyanopyrazol-1-yl)-2-fluoro-3-methoxyphenyl]methyl}-1-[(2-ethyl-3,4-dihydro-1H-isoquinolin-7-yl)methyl]-3-(methoxymethyl)pyrazole-4-carboxamide] |
| < 0.01 | 39.6 | > 40 | 920 (≈ 1610 µM) | COCc1nn(Cc2ccc3c(c2)CN(C(C)C)CC3)cc1C(=O)NCc1c(-n2cc(C#N)cn2)ccc(OC)c1F [Example 30, N-{[6-(4-cyanopyrazol-1-yl)-2-fluoro-3-methoxyphenyl]methyl}-1-[(2-isopropyl-3,4-dihydro-1H-isoquinolin-7-yl)methyl]-3-(methoxymethyl)pyrazole-4-carboxamide] |
| < 0.01 | > 40 | > 40 | > 1000 | COCc1nn(Cc2ccc3c(c2)CCN(C)C3)cc1C(=O)NCc1c(-n2cc(C(F)F)nn2)ccc(OC)c1F [Example 34, N-({6-[4-(difluoromethyl)-1,2,3-triazol-1-yl]-2-fluoro-3-methoxyphenyl}methyl)-3-(methoxymethyl)-1-[(2-methyl-3,4-dihydro-1H-isoquinolin-6-yl)methyl]pyrazole-4-carboxamide] |
| < 0.01 | > 4 | > 4 | 880 (≈ 1650 µM) | COCc1nn(Cc2ccc3c(c2)CCN(C)C3)cc1C(=O)NCc1c(-n2cc(C)nn2)ccc(OC)c1F [Example 36, N-{[2-fluoro-3-methoxy-6-(4-methyl-1,2,3-triazol-1-yl)phenyl]methyl}-3-(methoxymethyl)-1-[(2-methyl-3,4-dihydro-1H-isoquinolin-6-yl)methyl]pyrazole-4-carboxamide] |
| < 0.01 | 31.8 | > 40 | 800 (≈ 1470 µM) | COCc1nn(Cc2ccc3c(c2)CCN(C)C3)cc1C(=O)NCc1c(-n2ccc(C#N)n2)ccc(OC)c1F [Example 43, N-{[6-(3-cyanopyrazol-1-yl)-2-fluoro-3-methoxyphenyl]methyl}-3-(methoxymethyl)-1-[(2-methyl-3,4-dihydro-1H-isoquinolin-6-yl)methyl]pyrazole-4-carboxamide] |
| < 0.01 | > 40 | > 40 | > 1000 | COCc1nn(Cc2ccc3c(c2)CCN(C(C)C)C3)cc1C(=O)NCc1c(-n2cnc(C(F)F)n2)ccc(OC)c1F [Example 44, N-({6-[3-(difluoromethyl)-1,2,4-triazol-1-yl]-2-fluoro-3-methoxyphenyl}methyl)-1-[(2-isopropyl-3,4-dihydro-1H-isoquinolin-6-yl)methyl]-3-(methoxymethyl)pyrazole-4-carboxamide] |
| < 0.01 | > 40 | > 40 | 840 (≈ 1360 µM) | COCc1nn(Cc2ccc3c(c2)CCN(C(C)C)C3)cc1C(=O)NCc1c(-n2cnc(C(F)(F)F)n2)ccc(OC)c1F [Example 45, N-({2-fluoro-3-methoxy-6-[3-(trifluoromethyl)-1,2,4-triazol-1-yl]phenyl}methyl)-1-[(2-isopropyl-3,4-dihydro-1H-isoquinolin-6-yl)methyl]-3-(methoxymethyl)pyrazole-4-carboxamide] |
| 0.01 to 0.03 |  |  | 560 (≈ 995 µM) | COCc1nn(Cc2cnc3c(c2)CN(C(C)C)CC3)cc1C(=O)NCc1c(-n2cc(C)nn2)ccc(OC)c1F [Example 132, N-{[2-fluoro-3-methoxy-6-(4-methyl-1H-1,2,3-triazol-1-yl)phenyl]methyl}-3-(methoxymethyl)-1-{[6-(propan-2-yl)-5,6,7,8-tetrahydro-1,6-naphthyridin-3-yl]methyl}-1H-pyrazole-4-carboxamide] |

Second part, the compound before the results:

| SMILES | IC50 (Human plasma kallikrein) [µM] | IC50 (Human FXIa) [µM] | IC50 (Human KLK1) [µM] | solubility at 24 h [1] [µg/mL] |
| --- | --- | --- | --- | --- |
| CCN1CCc2ccc(Cn3cc(C(=O)NCc4c(-n5cnc(C(F)(F)F)n5)ccc(OC)c4F)c(COC)n3)cc2C1 [Example 25, 1-[(2-ethyl-3,4-dihydro-1H-isoquinolin-7-yl)methyl]-N-({2-fluoro-3-methoxy-6-[3-(trifluoromethyl)-1,2,4-triazol-1-yl]phenyl}methyl)-3-(methoxymethyl)pyrazole-4-carboxamide] | < 0.01 | > 40 | > 40 | 1000 (≈ 1660 µM) |
| CCN1CCc2ccc(Cn3cc(C(=O)NCc4c(-n5cnc(C(F)F)n5)ccc(OC)c4F)c(COC)n3)cc2C1 [Example 26, N-({6-[3-(difluoromethyl)-1,2,4-triazol-1-yl]-2-fluoro-3-methoxyphenyl}methyl)-1-[(2-ethyl-3,4-dihydro-1H-isoquinolin-7-yl)methyl]-3-(methoxymethyl)pyrazole-4-carboxamide] | < 0.01 | > 40 | > 40 | > 1000 |
| COCc1nn(Cc2ccc3c(c2)CCN(C2CC2)C3)cc1C(=O)NCc1c(-n2cc(C)nn2)ccc(OC)c1F [Example 35, 1-[(2-cyclopropyl-3,4-dihydro-1H-isoquinolin-6-yl)methyl]-N-{[2-fluoro-3-methoxy-6-(4-methyl-1,2,3-triazol-1-yl)phenyl]methyl}-3-(methoxymethyl)pyrazole-4-carboxamide] | 0.03 to 0.1 | > 40 | > 40 | 510 (≈ 911 µM) |
| COCc1nn(Cc2ccc3c(c2)CCN(C2CCC2)C3)cc1C(=O)NCc1c(-n2cc(C)nn2)ccc(OC)c1F [Example 40, 1-[(2-cyclobutyl-3,4-dihydro-1H-isoquinolin-6-yl)methyl]-N-{[2-fluoro-3-methoxy-6-(4-methyl-1,2,3-triazol-1-yl)phenyl]methyl}-3-(methoxymethyl)pyrazole-4-carboxamide] | 0.01 to 0.03 | > 40 | > 40 | > 1000 |
| COCc1nn(Cc2ccc3c(c2)CCN(C)C3)cc1C(=O)NCc1c(-n2cnc(C(F)F)n2)ccc(OC)c1F [Example 41, N-({6-[3-(difluoromethyl)-1,2,4-triazol-1-yl]-2-fluoro-3-methoxyphenyl}methyl)-3-(methoxymethyl)-1-[(2-methyl-3,4-dihydro-1H-isoquinolin-6-yl)methyl]pyrazole-4-carboxamide] | < 0.01 | > 40 | > 40 | > 1000 |
| COCc1nn(Cc2ccc3c(c2)CCN(C)C3)cc1C(=O)NCc1c(-n2cnc(C(F)(F)F)n2)ccc(OC)c1F [Example 42, N-({2-fluoro-3-methoxy-6-[3-(trifluoromethyl)-1,2,4-triazol-1-yl]phenyl}methyl)-3-(methoxymethyl)-1-[(2-methyl-3,4-dihydro-1H-isoquinolin-6-yl)methyl]pyrazole-4-carboxamide] | < 0.01 | > 40 | > 40 | 870 (≈ 1480 µM) |
| COCc1nn(Cc2ccc3ccncc3c2)cc1C(=O)NCc1c(-n2cc(C)nn2)ccc(OC)c1F [RC1, N-{[2-fluoro-3-methoxy-6-(4-methyl-1,2,3-triazol-1-yl)phenyl]methyl}-1-(isoquinolin-7-ylmethyl)-3-(methoxymethyl)pyrazole-4-carboxamide, reference compound] | 0.1 to 1 |  |  | 40 (≈ 77.6 µM) |
| COCc1nn(Cc2cnc(N3CCCC3)nc2)cc1C(=O)NCc1c(-n2cnnn2)ccc(OC)c1F [RC4, N-{[2-fluoro-3-methoxy-6-(1,2,3,4-tetrazol-1-yl)phenyl]methyl}-3-(methoxymethyl)-1-{[2-(pyrrolidin-1-yl)pyrimidin-5-yl]methyl}pyrazole-4-carboxamide, reference compound] | < 0.01 |  | > 40 | 170 (≈ 325 µM) |
